Test results taken from patent US20190015379A1, “USE OF DIANHYDROGALACTITOL AND ANALOGS AND DERIVATIVES THEREOF, TOGETHER WITH RADIATION, TO TREAT NON-SMALL-CELL CARCINOMA OF THE LUNG AND GLIOBLASTOMA MULTIFORME AND SUPPRESS PROLIFERATION OF CANCER STEM CELLS” (DelMar Pharmaceuticals, Inc., priority 2014, published 2019).
Entries after “also recorded” stand apart in the source; their conditions may differ.

Legend:
[1] = Tolerability in A549 tumor-bearing Rag2 mice (body weight, CBC, clinical observations)
Experimental: Tumor growth was monitored by measuring tumor dimensions with calipers beginning on the first day of treatment. Tumor length and width measurements were obtained each Monday, Wednesday, and Friday. Tumor volumes were calculated according to the equation L×W^2/2 with the length (in mm) being defined as the longer axis of the tumor. Animals were weighed at the time of tumor measurement. Tumors were allowed to grow to a maximum of 800 mm^3 before termination.
All animals had blood collected by cardiac puncture at termination for CBC (complete blood count) with differentiation.
In particular, signs of ill-health were based on body weight loss, change in appetite, and behavioral signs such as altered gait, lethargy, and gross manifestations of stress. If signs of severe toxicity or tumor-related illness were seen, the animals were terminated by isoflurane overdose followed by CO2 asphyxiation, and a necropsy was performed to assess other signs of toxicity. The following organs were examined: liver, gall bladder, spleen, lung, kidney, heart, intestine, lymph nodes, and bladder. Any unusual findings were noted.

[2] = test system: CSC and non-CSC cultures derived from primary GBM tissue; assay: Cell viability (CellTiter-Glo) in primary GBM cultures with or without radiation; assay type: cell-based, human
Experimental: “GAPDH” refers to glyceraldehyde-3-phosphate dehydrogenase as a control. For the cell cultures, CSCs were cultured in NSA media supplemented with B27, EGF and bFGF. Non-CSCs were grown in DMEM:F12 with 10% FBS. MGMT methylation and protein expression analysis of each culture was characterized. TMZ or VAL-083 was added to the cultures in the indicated concentrations. Depending on the experiment, cells were also irradiated with 2 Gy in a Cesium irradiator. For assays, cell cycle analysis was performed with Propidium Iodide staining and FACs analysis. Cell viability was analyzed with CellTiter-Glo™ and read on a Promega GloMax™. […] In FIG. 4, “1° GBM” refers to primary glioblastoma multiforme cell cultures.
In FIG. 17, TMZ (50 μM) or dianhydrogalactitol (“VAL-083”) (5 μM) were added to primary CSC cultures at various doses with or without irradiation (2 Gy). Shown are cell cycle profile analysis at day 4 post treatment (A,C) and cell viability analysis at day 6 post treatment (B,D) for the paired CSC (A,B) and non-CSC (C,D) 7996 culture.
In FIG. 18, dianhydrogalactitol (“VAL-083”) was added to primary CSC cultures at various doses (1, 2.5 and 5 μM) with or without irradiation (2 Gy). Shown are cell cycle profile analysis at day 4 post treatment (A,C) and cell viability analysis at day 6 post treatment (B,D) for two different patient-derived CSC cultures, 7996 (A,B) and 8565 (C,D).

[3] = test system: recurrent glioblastoma multiforme (GBM); assay: Phase I/II dose-escalation study, tumor response in GBM patients; assay type: in vivo, human
Source text: The methodology of the study reported in this Example is as follows: An open-label, single arm Phase I/II dose-escalation study designed to evaluate the safety, tolerability, pharmacokinetics and anti-tumor activity of dianhydrogalactitol in patients with: (i) histologically confirmed initial diagnosis of primary WHO Grade IV malignant GBM, now recurrent, or (ii) progressive secondary brain tumor, having failed standard brain radiotherapy, and with brain tumor progression after at least one line of systemic therapy. The study utilizes a 3+3 dose escalation design, until the MTD or the maximum specified dose is reached. Patients receive dianhydrogalactitol intravenously at the assigned dose on days 1, 2, and 3 of each 21-day treatment cycle. In Phase II, additional patients will be treated at the MTD (or other selected optimum Phase II dose) to measure tumor responses. All patients enrolled have previously been treated with surgery and/or radiation, if appropriate, and must have failed both bevacizumab and TMZ, unless contraindicated. For these studies, the following is a summary of the inclusion criteria: (1) Patients must be greater than or equal to 18 years old. (2) There is a histologically confirmed initial diagnosis of primary WHO Grade IV malignant glioma (glioblastoma), now recurrent, or progressive secondary brain tumor, the patient has failed standard brain radiotherapy, and the patient has brain tumor progression after at least one line of systemic therapy. […] (4) The patient must have a predicted life expectancy of at least 12 weeks. The following is a summary of the exclusion criteria: (1) There is a current history of neoplasm other than the entry diagnosis. Patients with previous cancers treated and cured with local therapy alone may be considered. (2) There is evidence of leptomeningeal spread of disease. […] (4) The patient had undergone prior treatment with intracerebral agents. […] (6) The patient is being administered concomitant medications that are strong inhibitors of cytochrome P450 and CYP3A up to 14 days before Cycle 1, Day 1 (pimozide, diltiazem, erythromycin, clarithromycin, and quinidine, and amiodarone up to 90 days before.
Enrollment and evaluation of Cohort 7 (40 mg/m^2) is ongoing. Higher doses may be enrolled subject to completion of mandated safety observation period with Cohort 6 (30 mg/m^2). Patients enrolled present with refractory progressive GBM and a dire prognosis. […] The primary endpoint of this portion of the study is to determine a modernized dosing regimen for advancement to registration-directed clinical trials. […] In this design, it is not possible to perform a rigorous assessment of patient benefit due to slowed tumor growth. Tumor volume is assessed during the study based on RANO criteria. […] Outcomes analysis of cohort 6 is ongoing. These preliminary data support continued exploration of higher dose cohorts.

[4] = test system: progressive secondary brain tumor; assay: Phase I/II dose-escalation study, tumor response in secondary brain tumor patients; assay type: in vivo, human; details: n = 6
Source text: (§1) The methodology of the study reported in this Example is as follows: An open-label, single arm Phase I/II dose-escalation study designed to evaluate the safety, tolerability, pharmacokinetics and anti-tumor activity of dianhydrogalactitol in patients with: (i) histologically confirmed initial diagnosis of primary WHO Grade IV malignant GBM, now recurrent, or (ii) progressive secondary brain tumor, having failed standard brain radiotherapy, and with brain tumor progression after at least one line of systemic therapy. The study utilizes a 3+3 dose escalation design, until the MTD or the maximum specified dose is reached. Patients receive dianhydrogalactitol intravenously at the assigned dose on days 1, 2, and 3 of each 21-day treatment cycle. In Phase II, additional patients will be treated at the MTD (or other selected optimum Phase II dose) to measure tumor responses. All patients enrolled have previously been treated with surgery and/or radiation, if appropriate, and must have failed both bevacizumab and TMZ, unless contraindicated. For these studies, the following is a summary of the inclusion criteria: (1) Patients must be greater than or equal to 18 years old. […]
Enrollment and evaluation of Cohort 7 (40 mg/m^2) is ongoing. […] Tumor volume is assessed during the study based on RANO criteria. […]

[5] = Phase I/II dose-escalation study, plasma pharmacokinetics; assay type: in vivo, human
Source text: as §1

[6] = test system: GBM cell lines SF188, U251, and T98G; assay: Tumor growth inhibition in GBM cell lines (FIG. 29); assay type: cell-based, human; details: MGMT negative SF188 and U251, MGMT positive T98G
[7] = test system: cancer stem cells (BT74, GBM4 and GBM8); details: neurosphere growth assays; Hu et al. 2012; cited from earlier work

dianhydrogalactitol
body weight loss ([1]; dianhydrogalactitol 6 mg/kg (group 5)): body weight loss was observed
tolerability of the dosage ([1]; dianhydrogalactitol 6 mg/kg, only 3 of 9 scheduled doses administered): significant weight loss and morbidity
hemoglobin (g/L), CBC at termination, versus untreated control ([1]; groups 4 or 5 (dianhydrogalactitol 3 or 6 mg/kg)): Statistical significance (p<0.05)
effect in combination with radiation ([2]; 1, 2.5 and 5 μM with or without irradiation (2 Gy), CSC cultures 7996 and 8565): acts as a radiosensitizer in primary CSC cultures; also recorded: potential additive effect of dianhydrogalactitol with radiation
reduction in cell viability with dianhydrogalactitol plus radiation ([2]; 7996 GNS (CSC), low concentration such as 1 μM, radiation): 20%
cell viability in TMZ-resistant cultures ([2]; VAL-083 5 μM, paired CSC and non-CSC 7996 culture, viability day 6 post treatment): decreases cell viability in TMZ-resistant cultures
tumor response in cohort 6 ([3]; 30 mg/m^2, one of two patients, after 1 cycle of treatment): stable disease
Tumor Response, PR (number of patients) ([3]; GBM, n = 8): PR (1); SD (1)
Tumor Response, SD (number of patients) ([3]; GBM, n = 8): PR (1); SD (1)
Tumor Response, Overall ([3]; GBM, n = 8, prior Surgery/XRT/TMZ/BEV): Overall = 25%
MRI scan findings ([3]; Patient #26, T=64 days versus T=0, after two cycles): Thick confluent regions of abnormal enhancement have diminished
Tumor Response, Overall ([4]; secondary brain tumors (breast adenocarcinoma 2, small-cell lung carcinoma 3, melanoma 1)): Overall = 17%
Tumor Response, SD (number of patients) ([4]; secondary brain tumors): SD (1)
pharmacokinetics, dose dependence ([5]; dose cohorts of the current trial): linear
plasma half-life ([5]; i.v., patients): 1 to 2 h
inhibition of tumor growth compared with TMZ [6]: better than TMZ for inhibiting tumor growth
inhibition of growth of cancer stem cells [7]: 80-100%
